Values of other authors, collected in patent publication US5922313A, “Antibacterial composition” (Bio-Safe Enterprises, Inc., priority 1998, dated 1999).

Key:
[1] = system: HIV
[2] = system: hepatitis B

nonylphenol thoxylate
virus killing [1]: effective in killing hepatitis B and HIV viruses
virus killing [2]: effective in killing hepatitis B and HIV viruses
